The values below come from the supplement of paper PMC6045584.

Compound in one test: CC[C@@]1(O)C(=O)OCc2c1cc1n(c2=O)Cc2cc3ccccc3nc2-1 [CAMPTOTHECIN]
In words: surviving fraction relative to DMSO-only wells; higher = less growth inhibition. To be noted: exposure time: 5 days. Summed up: (§1)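 Five days of continuous inhibitor exposure, at 0.5, 1, 5, 10, 50, 100, 500 and 1000 nM, followed a 24-hour period after log-phase tumour cell lines were seeded at 250–500 cells per well in 384-well plates. Surviving fraction was derived from CellTiter-Glo luminescence relative to the median of DMSO-only wells. Plates were read after 10 minutes at room temperature, and lines screened three times were kept only if replicate Pearson r >0.7 and median Z' >0.3.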

Compound in a further test: Cc1ccc(-c2cc(C(F)(F)F)nn2-c2ccc(S(N)(=O)=O)cc2)cc1 [CELECOXIB]
The test is described as above. Particulars: exposure time: 5 days. Summed up:
as §1

± gives the standard deviation of the averaged measurements.

Consider SCC003 HEADNECK, for which the surviving fraction with CAMPTOTHECIN (0.5 nM) was 0.817 ± 0.034; with CAMPTOTHECIN (1 nM), 0.868 ± 0.085; in the test with CAMPTOTHECIN (5 nM) it was 0.849 ± 0.065; with CAMPTOTHECIN (10 nM) it was 0.786 ± 0.094; with CAMPTOTHECIN (50 nM), 0.361 ± 0.052; in the test with CAMPTOTHECIN (100 nM) it was 0.218 ± 0.029. Besides, the surviving fraction was determined as 0.07 ± 0.0061 with CAMPTOTHECIN (500 nM); 0.054 ± 0.004 with CAMPTOTHECIN (1000 nM); 1.07 ± 0.033 with CELECOXIB (0.5 nM); 1.1 ± 0.049 in the test with CELECOXIB (1 nM); 1.05 ± 0.034 in the test with CELECOXIB (5 nM); 1.06 ± 0.027 in the test with CELECOXIB (10 nM). The surviving fraction in the test with CELECOXIB (50 nM) turned out to be 1.12 ± 0.11; with CELECOXIB (100 nM) it was 1.09 ± 0.049; in the test with CELECOXIB (500 nM), 1.13 ± 0.11; with CELECOXIB (1000 nM), 1.08 ± 0.067.

HT1080 SOFT TISSUE: the surviving fraction with CAMPTOTHECIN (0.5 nM) worked out at 0.956 ± 0.017; in the test with CAMPTOTHECIN (1 nM) it was 0.925 ± 0.027; with CAMPTOTHECIN (5 nM), 0.739 ± 0.034; in the test with CAMPTOTHECIN (10 nM), 0.361 ± 0.0046; in the test with CAMPTOTHECIN (50 nM), 0.377 ± 0.014; with CAMPTOTHECIN (100 nM) it was 0.26 ± 0.022. Also, the surviving fraction is 0.0953 ± 0.016 with CAMPTOTHECIN (500 nM); 0.0837 ± 0.0075 with CAMPTOTHECIN (1000 nM); 1.039 ± 0.0011 with CELECOXIB (0.5 nM); 1.06 ± 0.011 with CELECOXIB (1 nM); 1.038 ± 0.0067 with CELECOXIB (5 nM); 1.05 ± 0.014 with CELECOXIB (10 nM). For the same test system, the surviving fraction is 0.995 ± 0.02 in the test with CELECOXIB (50 nM), 1.011 ± 0.008 with CELECOXIB (100 nM), 1.02 ± 0.012 with CELECOXIB (500 nM) and 1 ± 0.021 in the test with CELECOXIB (1000 nM).

For the test system NY BONE, the surviving fraction was found to be 0.894 ± 0.052 with CAMPTOTHECIN (0.5 nM); 0.905 ± 0.021 with CAMPTOTHECIN (1 nM); 0.648 ± 0.026 with CAMPTOTHECIN (5 nM); 0.184 ± 0.012 with CAMPTOTHECIN (10 nM); 0.067 ± 0.0061 with CAMPTOTHECIN (50 nM); 0.0407 ± 0.0015 in the test with CAMPTOTHECIN (100 nM). The surviving fraction in the test with CAMPTOTHECIN (500 nM) amounted to 0.02 ± 0.0017; with CAMPTOTHECIN (1000 nM) it was 0.0217 ± 0.0021; with CELECOXIB (0.5 nM), 0.989 ± 0.03; with CELECOXIB (1 nM), 1.04 ± 0.041; in the test with CELECOXIB (5 nM), 1.09 ± 0.038; with CELECOXIB (10 nM), 1.08 ± 0.022. Further, the surviving fraction in the test with CELECOXIB (50 nM) is 1.11 ± 0.047; in the test with CELECOXIB (100 nM) it was 1.1 ± 0.039; with CELECOXIB (500 nM), 1.01 ± 0.021; with CELECOXIB (1000 nM), 1.01 ± 0.053.

For the test system SG28 HEADNECK, the surviving fraction with CAMPTOTHECIN (0.5 nM) is 0.21 ± 0.068; with CAMPTOTHECIN (1 nM) it was 0.771 ± 0.12; with CAMPTOTHECIN (5 nM) it was 0.579 ± 0.056; with CAMPTOTHECIN (10 nM), 0.696 ± 0.099; with CAMPTOTHECIN (50 nM), 0.337 ± 0.015; with CAMPTOTHECIN (100 nM) it was 0.55 ± 0.044. Further, the surviving fraction was 0.211 ± 0.04 with CAMPTOTHECIN (500 nM); 0.102 ± 0.0035 with CAMPTOTHECIN (1000 nM); 1.19 ± 0.26 with CELECOXIB (0.5 nM); 1.19 ± 0.04 with CELECOXIB (1 nM); 1.24 ± 0.099 with CELECOXIB (5 nM); 1.2 ± 0.13 with CELECOXIB (10 nM). The surviving fraction in the test with CELECOXIB (50 nM) was 1.2 ± 0.18; with CELECOXIB (100 nM), 1.233 ± 0.0057; with CELECOXIB (500 nM) it was 1.16 ± 0.027; with CELECOXIB (1000 nM), 1.29 ± 0.059.

Regarding HMLE3 BREAST, the surviving fraction in the test with CAMPTOTHECIN (0.5 nM) is 0.304 ± 0.027; with CAMPTOTHECIN (1 nM) it was 0.85433 ± 0.00058; in the test with CAMPTOTHECIN (5 nM), 0.485 ± 0.027; with CAMPTOTHECIN (10 nM), 0.3 ± 0.0056; with CAMPTOTHECIN (50 nM), 0.127 ± 0.026; in the test with CAMPTOTHECIN (100 nM), 0.0547 ± 0.0029. Further, the surviving fraction in the test with CAMPTOTHECIN (500 nM) is 0.0203 ± 0.0015; in the test with CAMPTOTHECIN (1000 nM), 0.0213 ± 0.00058; with CELECOXIB (0.5 nM), 1.08 ± 0.07; with CELECOXIB (1 nM), 1.06 ± 0.032; in the test with CELECOXIB (5 nM), 1.08 ± 0.1; with CELECOXIB (10 nM), 1.06 ± 0.025. In addition, the surviving fraction in the test with CELECOXIB (50 nM) amounted to 1.04 ± 0.15; with CELECOXIB (100 nM) it was 1.09 ± 0.076; with CELECOXIB (500 nM) it was 1.1 ± 0.061; with CELECOXIB (1000 nM), 1.03 ± 0.17.

Turning to KPD BONE, the surviving fraction in the test with CAMPTOTHECIN (0.5 nM) was 0.886 ± 0.02; in the test with CAMPTOTHECIN (1 nM), 0.856 ± 0.041; with CAMPTOTHECIN (5 nM), 0.509 ± 0.0098; with CAMPTOTHECIN (10 nM) it was 0.327 ± 0.004; with CAMPTOTHECIN (50 nM), 0.29 ± 0.015; with CAMPTOTHECIN (100 nM), 0.15 ± 0.016. Moreover, the surviving fraction was found to be 0.041 ± 0.0027 in the test with CAMPTOTHECIN (500 nM); 0.0363 ± 0.0045 with CAMPTOTHECIN (1000 nM); 1.04 ± 0.1 with CELECOXIB (0.5 nM); 1.01 ± 0.054 with CELECOXIB (1 nM); 1.11 ± 0.065 in the test with CELECOXIB (5 nM); 1.07 ± 0.029 with CELECOXIB (10 nM). Moreover, the surviving fraction with CELECOXIB (50 nM) was found to be 1.05 ± 0.04; in the test with CELECOXIB (100 nM) it was 1.07 ± 0.12; with CELECOXIB (500 nM), 1.05 ± 0.012; with CELECOXIB (1000 nM), 0.934 ± 0.043.
